Laboratory results published in patent publication US20240174690A1, “ANNULATED 2-AMINO-3-CYANO THIOPHENES AND DERIVATIVES FOR THE TREATMENT OF CANCER” (BOEHRINGER INGELHEIM INTERNATIONAL GMBH, priority 2021, published 2024).
In brackets after ≈: the same amount, converted by molar mass. Where two headings read alike, the source gives them in different places.

Columns and labels:
SAS cells = assay: SAS CTG proliferation assay (120 h) (HNSCC, wt amplified); assay type: cell-based
Procedure: SAS CTG Proliferation Assay (120 h) (HNSCC, Wt Amplified)
SAS cells (JCRB0260) are dispensed into 384-well plates, flat and clear bottom (Greiner, PNr. 781091) at a density of 300 cells per well in 60 μL DMEM:F12 (Gibco 31330-038)+10% Fetal Calf Serum (HyClone, PNr.: SH30084.03) and incubated at 37° C. in a CO2 incubator overnight. The next day, compounds (10 mM stock in DMSO) are added with the ECHO acoustic liquid handler system (Beckman Coulter), including DMSO controls. Plates are incubated for 120 h, and cell viability is measured using CellTiter-Glo luminescent cell viability reagent (Promega product code G7570). Viability (stated as percent of control) is defined as relative luminescence units RLU of each well divided by the RLU of cells in DMSO controls. IC50 values are determined from viability measurements by non-linear regression using a four-parameter model.

[1] = Plasma protein binding assay (PPB), equilibrium dialysis, 10% FCS in PBS; assay type: in vitro ADME; settings: bovine, read-out: PPB 10% FCS (% fu)
Procedure: Binding of test compounds to plasma was determined using equilibrium dialysis (ED) and quantitative mass spectrometry interfaced with liquid chromatography (LC-MS). In brief, ED was performed with dialysis devices consisting of two chambers separated by a semipermeable membrane with a molecular weight cut-off of 5-10 kg/mol. One chamber was filled with 10% FCS in PBS containing 1-10 μmol/L test compound and the other chamber was filled with phosphate-buffer saline (PBS) with or without dextran. The dialysis chamber was incubated for 3-5 hours at 37° C. After incubation, protein was precipitated from aliquots of each chamber and the concentration of test compound in the supernatant of the plasma-containing compartment (Cserum) and of the buffer-containing compartment (Cbuffer) was determined by LC-MS. The fraction of unbound test compound (not bound to plasma) (fu) was calculated according to the following equation: […]

[2] = Solubility measurement (DMSO solution method), McIlvaine buffer pH 4.5 or 6.8; assay type: physicochemical; settings: aqueous buffer, kinetic from dmso stock, DMSO stock diluted to 250 μM, 24 h shaking at ambient temperature
Procedure: The DMSO solution is diluted with an aqueous medium (Mcllvaine buffer with pH=4.5 or 6.8) to a final concentration of 250 μM. After 24 h of shaking at ambient temperature a potentially formed precipitate is removed by filtration. The concentration of the test compound in the filtrate is determined by LC-UV methods by calibrating the signal to the signal of a reference solution with complete dissolution of the test compound in acetonitrile/water (1:1) with known concentration.

KRAS (G12D)::SOS1 = KRAS (G12D)::SOS1 (Homo sapiens (Human), UniProt P01116, G12D); assay: KRAS::SOS1 AlphaScreen binding assay, KRAS G12D
Text: This assay can be used to examine the potency with which compounds according to the invention binding to (mutated) KRAS inhibit the protein-protein interaction between SOS1 and (mutated) KRAS e.g., KRAS WT, KRAS G12C, KRAS G12D, KRAS G12V, KRAS G13D. […] Low IC50 values in this assay setting are indicative of strong inhibition of protein-protein interaction between SOS1 and KRAS:
These assays measure the inhibitory effect of compounds on KRAS mutant protein-protein interactions using the Alpha Screen technology by Perkin Elmer.
The following (mutant) enzyme forms of KRAS and interacting proteins are used in these assays at the given concentrations: • KRAS (G12D) 1-169, N-terminal 6His-tag, C-terminal avi-tag (Xtal BioStructures, Inc.); final assay concentration 10 nM and SOS1 564-1049, N-terminal 229 GST-tag, TEV cleavage site (Viva Biotech Ltd); final assay concentration 5 nM; • KRAS (G12C) 1-169, N-terminal 6His-tag for purification, cleaved off, C-terminal avi-tag, biotinylated, mutations: C51S, C80L, C118S (in house); final assay concentration 7.5 nM and SOS1 564-1049, N-terminal 229 GST-tag, TEV cleavage site (Viva Biotech Ltd); final assay concentration 5 nM; • KRAS (G12V) 1-169, N-terminal 6His-tag for purification, cleaved off, C-terminal avi-tag, biotinylated, TEV cleavage site, mutation: C118S, GDP loaded (in house); final assay concentration 10 nM and SOS1 564-1049, N-terminal 229 GST-tag, TEV cleavage site (Viva Biotech Ltd); final assay concentration 10 nM; • KRAS (G13D) 1-169, N-terminal 6His-tag for purification, cleaved off, C-terminal avi-tag, biotinylated, TEV cleavage site, mutation: C118S, GDP loaded (in house); final assay concentration 10 nM and SOS1 564-1049, N-terminal 229 GST-tag, TEV cleavage site (Viva Biotech Ltd); final assay concentration 10 nM; • KRAS (WT) 1-169, N-terminal 6His-tag for purification, cleaved off, C-terminal avi-tag, biotinylated, TEV cleavage site, mutation: C118S, GDP loaded (in house); final assay concentration 10 nM and SOS1 564-1049, N-terminal 229 GST-tag, TEV cleavage site (Viva Biotech Ltd); final assay concentration 10 nM.
Test compounds dissolved in DMSO are dispensed onto assay plates (Proxiplate 384 PLUS, white, PerkinElmer; 6008289) using an Access Labcyte Workstation with the Labcyte Echo 55×. For the chosen highest assay concentration of 100 μM, 150 nL of compound solution are transferred from a 10 mM DMSO compound stock solution. A series of eleven fivefold dilutions per compound are transferred to the assay plate, compound dilutions are tested in duplicates. DMSO are added as backfill to a total volume of 150 nL.
The assays run on a fully automated robotic system in a darkened room below 100 Lux. To 150 nl of compound dilution 10 μl of a mix including KRAS mutant protein, SOS1 (final assay concentrations see above) and GDP nucleotide (Sigma G7127; final assay concentration 10 μM) in assay buffer (1×PBS, 0.1% BSA, 0.05% Tween 20) are added into columns 1-24.
After 30 minutes incubation time 5 μl of Alpha Screen bead mix in assay buffer are added into columns 1-23. Bead mix consists of AlphaLISA Glutathione Acceptor Beads (PerkinElmer, Cat No AL109) and AlphaScreen Streptavidin Donor Beads (PerkinElmer Cat No 6760002) in assay buffer at a final assay concentration of 10 μg/ml each.
Plates are kept at room temperature in a darkened incubator. After an additional 60 minutes incubation time the signal is measured in a PerkinElmer Envision HTS Multilabel Reader using the AlphaScreen specs from PerkinElmer.
Each plate contains up to 16 wells of a negative control depending on the dilution procedure (platewise or serial) (DMSO instead of test compound; with KRAS mutant::SOS1 GDP mix and bead mix; column 23) and 16 wells of a positive control (DMSO instead of test compound; with KRAS mutant::SOS1 GDP mix w/o bead mix; column 24).
As internal control known inhibitors of KRAS mutant::SOS1 interaction can be measured on each compound plate. […]

[3] = McIlvaine buffer pH 4.5, read-out: solubility pH 4.5
[4] = McIlvaine buffer pH 6.8, read-out: solubility pH 6.8

Chain of KRAS (G12D)::SOS1 (P01116 other isoform, or with tags, fused parts or gaps G12D): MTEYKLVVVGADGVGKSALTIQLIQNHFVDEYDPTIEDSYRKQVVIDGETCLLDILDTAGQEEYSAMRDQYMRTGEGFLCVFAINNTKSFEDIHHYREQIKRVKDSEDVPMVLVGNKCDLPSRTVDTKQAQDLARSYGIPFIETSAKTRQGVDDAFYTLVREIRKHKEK

Structure (SMILES)	IC50 (SAS cells)	fraction unbound [1]	solubility at 24 h [2, 3]	solubility at 24 h [2, 4]	IC50 (KRAS (G12D)::SOS1)
C[C@H](Oc1cc(N2CCNC3(CC3)C2)nc(-c2onc3c2CCC[C@@]32CCCc3sc(N)c(C#N)c32)n1)[C@@H]1CCCN1C [I-5]	2040 nM	0.51	> 138 µg/mL	> 123 µg/mL	1 nM
C[C@H](Oc1cc(N2C[C@H](C)N[C@@H](C)C2)nc(-c2onc3c2CCC[C@@]32CCCc3sc(N)c(C#N)c32)n1)[C@@H]1CCCN1C [I-6]	3440 nM	0.94	> 147 µg/mL	> 144 µg/mL	1 nM
C[C@H]1CN(C)CCCN1c1cc(N2CCN(C)CC2)nc(-c2onc3c2CCC[C@@]32CCCc3sc(N)c(C#N)c32)n1 [I-7]	472 nM	0.36	> 139 µg/mL	> 133 µg/mL	3 nM
C[C@H](Oc1cc(N2C[C@H](C)NC3(CC3)C2)nc(-c2onc3c2CCC[C@@]32CCCc3sc(N)c(C#N)c32)n1)[C@@H]1CCCN1C [I-8]	131 nM	0.77	> 146 µg/mL	116 µg/mL (≈ 189 µM)	1 nM
C[C@H](Oc1cc(N2CCN3CCC3C2)nc(-c2onc3c2CCC[C@@]32CCCc3sc(N)c(C#N)c32)n1)[C@@H]1CCCN1C (stereo partly drawn) [I-9]	20200 nM	0.8	> 149 µg/mL	> 147 µg/mL	2 nM
C[C@H](Oc1cc(N2CCNCC23CCOC3)nc(-c2onc3c2CCC[C@@]32CCCc3sc(N)c(C#N)c32)n1)[C@@H]1CCCN1C (stereo partly drawn) [I-10]	–	0.7	> 141 µg/mL	> 136 µg/mL	1 nM
C[C@H](Oc1cc(N2CC[C@H](N(C)C)C2)nc(-c2onc3c2CCC[C@@]32CCCc3sc(N)c(C#N)c32)n1)[C@@H]1CCCN1C [I-11]	651 nM	0.33	> 141 µg/mL	112 µg/mL (≈ 186 µM)	1 nM
C[C@H](Oc1cc(-n2cc3c(n2)CCNC3)nc(-c2noc3c2CCC[C@@]32CCCc3sc(N)c(C#N)c32)n1)[C@@H]1CCCN1C [II-53]	1720 nM	0.29	–	–	1 nM
C[C@H](Oc1cc(-c2cncs2)nc(-c2noc3c2CCC[C@@]32CCCc3sc(N)c(C#N)c32)n1)[C@@H]1CCCN1C [II-80]	> 25000 nM	0.23	–	–	7 nM
C[C@H](Oc1cc(-c2ccn(-c3ccsc3)n2)nc(-c2noc3c2CCC[C@@]32CCCc3sc(N)c(C#N)c32)n1)[C@@H]1CCCN1C [II-84]	52 nM	–	< 1 µg/mL	< 1 µg/mL	6 nM
C[C@H](Oc1cc(-c2cn[nH]c2)nc(-c2noc3c2CCC[C@@]32CCCc3sc(N)c(C#N)c32)n1)[C@@H]1CCCN1C [II-87]	107 nM	0.26	–	–	3 nM
C[C@H](Oc1cc([C@H]2CCOC2)nc(-c2noc3c2CCC[C@@]32CCCc3sc(N)c(C#N)c32)n1)[C@@H]1CCCN1C [II-88]	2220 nM	0.2	–	–	1 nM
C[C@H](Oc1cc(-c2ccn(-c3ccccc3)n2)nc(-c2noc3c2CCC[C@@]32CCCc3sc(N)c(C#N)c32)n1)[C@@H]1CCCN1C [II-89]	246 nM	–	2 µg/mL (≈ 3.16 µM)	< 1 µg/mL	12 nM
C[C@H](Oc1cc(N2CCc3cccnc32)nc(-c2noc3c2CCC[C@@]32CCCc3sc(N)c(C#N)c32)n1)[C@@H]1CCCN1C [II-90]	4390 nM	0.01	–	–	21 nM
C[C@H](Oc1cc(-n2cccc3cnnc2-3)nc(-c2noc3c2CCC[C@@]32CCCc3sc(N)c(C#N)c32)n1)[C@@H]1CCCN1C [II-92]	275 nM	0.09	–	–	14 nM
Cc1nc(-c2cc(O[C@@H](C)[C@@H]3CCCN3C)nc(-c3noc4c3CCC[C@@]43CCCc4sc(N)c(C#N)c43)n2)cs1 [II-103]	–	0.07	53 µg/mL (≈ 90.2 µM)	< 1 µg/mL	2 nM
C[C@H](Oc1cc(-c2cn(C3CCOCC3)nn2)nc(-c2noc3c2CCC[C@@]32CCCc3sc(N)c(C#N)c32)n1)[C@@H]1CCCN1C [II-115]	–	0.43	–	–	13 nM
C[C@H](Oc1cc(-n2ccncc2=O)nc(-c2noc3c2CCC[C@@]32CCCc3sc(N)c(C#N)c32)n1)[C@@H]1CCCN1C [II-116]	2010 nM	0.35	–	–	2 nM
